Experimental data as given in US20220387604A1, “SELECTIVE DUAL HISTONE DEACETYLASE 6/8 (HDAC6/8) DEGRADERS AND METHODS OF USE THEREOF” (DANA-FARBER CANCER INSTITUTE, INC., priority 2019, published 2022).
Entries after “also recorded” stand apart in the source; their conditions may differ.

Experiments:
Assay type in all cases: biochemical
HDAC1 = target: T1, HDAC1 (Homo sapiens, UniProt Q13547); test: HDAC enzymatic assay (Reaction Biology), HDAC1
T1 construct: purchased Reaction Biology
Protocol: (§1) Compound 1 was tested in an enzymatic assay from Reaction Biology® against 10 HDAC isoforms. The IC50 values were derived from a 10-dose response curve.
(§2) Base Reaction buffer: 50 mM Tris-HCl, pH8.0, 137 mM NaCl, 2.7 mM KCl, and 1 mM MgCl2, Add fresh: 1 mg/ml BSA, 1% DMSO
(§3) Fluorogenic HDAC General Substrate (HDAC1, HDAC2, HDAC3, HDAC6, HDAC10, and HDAC11): 50 μM, Arg-His-Lys-Lys(Ac)-AMC
(§4) 1. Delivered 2× enzyme in wells of reaction plate except in the control wells and added buffer to control wells. 2. Delivered compounds in 100% DMSO into the enzyme mixture by Acoustic technology (Echo550; nanoliter range). Spin down and pre-incubation. 3. Delivered 2× Substrate Mixture (Fluorogenic HDAC Substrate and co-factor if applicable) in all reaction wells to initiate the reaction. Spin and shake. 4. Incubated for 30 min for Class 2A, 1 h for HDAC1, 2, 3, and 6, and 2 h for the rest of HDAC isoforms and SIRTs at 30° C. with seal.
(§5) 5. Added Developer with Trichostatin A (or Nicotinamide for SIRTs) to stop the reaction and to generate fluorescent color. 6. The fluorescence that was generated was detected with excitation (Ex) at […] and emission (Em) at 460 nM by the EnVision Multilabel Plate Reader (PerkinElmer®, Santa Clara, Calif., USA).
(§6) IC50 values were derived from a 10-dose response curve.

HDAC2 = target: T2, HDAC2 (Homo sapiens, UniProt Q92769); test: HDAC enzymatic assay (Reaction Biology), HDAC2
T2 construct: purchased Reaction Biology
T2 sequence (Q92769 whole entry): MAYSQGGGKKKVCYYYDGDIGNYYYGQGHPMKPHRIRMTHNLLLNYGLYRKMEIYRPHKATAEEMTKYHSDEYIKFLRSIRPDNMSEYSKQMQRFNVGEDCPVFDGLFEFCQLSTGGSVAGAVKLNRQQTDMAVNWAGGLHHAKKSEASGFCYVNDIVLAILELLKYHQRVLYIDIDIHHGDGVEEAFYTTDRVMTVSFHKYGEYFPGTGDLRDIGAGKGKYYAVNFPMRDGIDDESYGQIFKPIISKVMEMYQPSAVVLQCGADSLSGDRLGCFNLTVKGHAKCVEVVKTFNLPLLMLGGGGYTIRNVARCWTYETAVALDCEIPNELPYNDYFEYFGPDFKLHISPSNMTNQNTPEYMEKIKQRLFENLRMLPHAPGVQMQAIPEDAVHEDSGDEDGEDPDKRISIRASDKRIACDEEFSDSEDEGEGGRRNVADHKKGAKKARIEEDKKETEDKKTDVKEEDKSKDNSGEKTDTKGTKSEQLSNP
Protocol: as §1, §2, §3, §4, §5, §6

HDAC3 = target: T3, HDAC3 (Homo sapiens, UniProt O15379); test: HDAC enzymatic assay (Reaction Biology), HDAC3
T3 construct: purchased Reaction Biology
T3 sequence (O15379 whole entry): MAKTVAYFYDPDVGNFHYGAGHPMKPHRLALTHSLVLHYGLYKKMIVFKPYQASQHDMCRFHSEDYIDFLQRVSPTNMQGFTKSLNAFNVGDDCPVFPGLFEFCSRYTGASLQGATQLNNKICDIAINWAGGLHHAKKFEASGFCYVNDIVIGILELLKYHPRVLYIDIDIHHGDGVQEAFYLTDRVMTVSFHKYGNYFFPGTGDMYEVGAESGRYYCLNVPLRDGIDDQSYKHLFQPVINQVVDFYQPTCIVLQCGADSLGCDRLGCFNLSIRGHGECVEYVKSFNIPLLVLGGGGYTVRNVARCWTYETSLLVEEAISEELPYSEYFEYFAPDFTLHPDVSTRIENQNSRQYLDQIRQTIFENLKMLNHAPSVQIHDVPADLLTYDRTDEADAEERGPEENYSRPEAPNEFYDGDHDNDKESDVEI
T3 sequence (Q9Y618 395-489 partner limits assumed): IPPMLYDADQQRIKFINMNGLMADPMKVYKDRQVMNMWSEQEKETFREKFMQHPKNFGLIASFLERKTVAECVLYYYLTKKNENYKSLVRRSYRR
Protocol: as §1, §2, §3, §4, §5, §6

HDAC8 = target: T4, HDAC8 (Homo sapiens, UniProt Q9BY41); test: HDAC enzymatic assay (Reaction Biology), HDAC8
T4 construct: purchased Reaction Biology
T4 sequence (Q9BY41 1-377): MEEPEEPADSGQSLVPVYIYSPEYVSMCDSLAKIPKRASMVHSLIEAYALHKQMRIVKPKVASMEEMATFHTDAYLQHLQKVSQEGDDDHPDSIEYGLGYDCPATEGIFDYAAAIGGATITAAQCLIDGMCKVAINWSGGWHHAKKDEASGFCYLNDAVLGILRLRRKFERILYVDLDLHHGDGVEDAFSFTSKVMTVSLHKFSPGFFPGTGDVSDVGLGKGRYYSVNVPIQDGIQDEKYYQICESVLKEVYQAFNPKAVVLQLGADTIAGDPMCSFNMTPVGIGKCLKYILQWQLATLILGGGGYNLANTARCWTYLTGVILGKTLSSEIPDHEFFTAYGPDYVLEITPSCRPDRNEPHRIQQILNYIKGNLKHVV
Protocol: as §1, §2
(HDAC8 only substrate: 50 μM, Arg-His-Lys(Ac)-Lys(Ac))-AMC
as §4, §5, §6

HDAC5 = target: T5, HDAC5 (Homo sapiens, UniProt Q9UQL6); test: HDAC enzymatic assay (Reaction Biology), HDAC5
T5 construct: purchased Reaction Biology
T5 sequence (Q9UQL6 whole entry): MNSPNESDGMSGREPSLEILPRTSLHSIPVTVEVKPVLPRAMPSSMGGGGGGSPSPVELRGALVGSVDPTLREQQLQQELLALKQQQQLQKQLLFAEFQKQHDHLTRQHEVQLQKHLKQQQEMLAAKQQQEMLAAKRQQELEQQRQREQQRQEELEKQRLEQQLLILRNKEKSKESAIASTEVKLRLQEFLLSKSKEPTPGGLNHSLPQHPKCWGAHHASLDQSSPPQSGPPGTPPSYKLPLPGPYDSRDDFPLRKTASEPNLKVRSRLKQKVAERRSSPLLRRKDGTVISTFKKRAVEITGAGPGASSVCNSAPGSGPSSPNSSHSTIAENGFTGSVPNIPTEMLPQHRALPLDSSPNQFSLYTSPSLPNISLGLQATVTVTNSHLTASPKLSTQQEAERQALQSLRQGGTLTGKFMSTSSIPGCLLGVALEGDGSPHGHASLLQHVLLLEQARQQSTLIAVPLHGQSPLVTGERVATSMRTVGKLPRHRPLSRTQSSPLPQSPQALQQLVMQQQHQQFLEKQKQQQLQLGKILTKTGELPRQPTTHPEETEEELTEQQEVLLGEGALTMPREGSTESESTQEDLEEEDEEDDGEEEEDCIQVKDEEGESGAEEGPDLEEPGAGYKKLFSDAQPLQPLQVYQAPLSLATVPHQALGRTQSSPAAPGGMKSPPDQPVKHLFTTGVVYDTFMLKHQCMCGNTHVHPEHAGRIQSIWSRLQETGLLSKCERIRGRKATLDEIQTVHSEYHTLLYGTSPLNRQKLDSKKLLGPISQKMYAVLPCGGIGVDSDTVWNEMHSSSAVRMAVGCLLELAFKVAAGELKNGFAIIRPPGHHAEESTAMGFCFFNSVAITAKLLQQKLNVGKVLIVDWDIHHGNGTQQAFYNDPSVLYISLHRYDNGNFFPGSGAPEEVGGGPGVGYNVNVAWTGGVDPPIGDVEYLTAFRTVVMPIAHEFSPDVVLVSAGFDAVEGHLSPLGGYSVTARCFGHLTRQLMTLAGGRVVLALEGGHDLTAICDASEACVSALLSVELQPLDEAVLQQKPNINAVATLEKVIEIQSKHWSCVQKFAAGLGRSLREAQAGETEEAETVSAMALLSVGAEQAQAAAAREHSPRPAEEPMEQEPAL
Protocol: as §1, §2
(§7) Class2A Substrate (HDAC4, HDAC5, HDAC7, and HDAC9): Boc-Lys(trifluoroacetyl)-AMC
as §4, §5, §6

HDAC7 = target: T6, HDAC7 (Homo sapiens, UniProt Q8WUI4); test: HDAC enzymatic assay (Reaction Biology), HDAC7; conditions: summary of Table 1
T6 construct: purchased Reaction Biology
T6 sequence (Q8WUI4 1-952): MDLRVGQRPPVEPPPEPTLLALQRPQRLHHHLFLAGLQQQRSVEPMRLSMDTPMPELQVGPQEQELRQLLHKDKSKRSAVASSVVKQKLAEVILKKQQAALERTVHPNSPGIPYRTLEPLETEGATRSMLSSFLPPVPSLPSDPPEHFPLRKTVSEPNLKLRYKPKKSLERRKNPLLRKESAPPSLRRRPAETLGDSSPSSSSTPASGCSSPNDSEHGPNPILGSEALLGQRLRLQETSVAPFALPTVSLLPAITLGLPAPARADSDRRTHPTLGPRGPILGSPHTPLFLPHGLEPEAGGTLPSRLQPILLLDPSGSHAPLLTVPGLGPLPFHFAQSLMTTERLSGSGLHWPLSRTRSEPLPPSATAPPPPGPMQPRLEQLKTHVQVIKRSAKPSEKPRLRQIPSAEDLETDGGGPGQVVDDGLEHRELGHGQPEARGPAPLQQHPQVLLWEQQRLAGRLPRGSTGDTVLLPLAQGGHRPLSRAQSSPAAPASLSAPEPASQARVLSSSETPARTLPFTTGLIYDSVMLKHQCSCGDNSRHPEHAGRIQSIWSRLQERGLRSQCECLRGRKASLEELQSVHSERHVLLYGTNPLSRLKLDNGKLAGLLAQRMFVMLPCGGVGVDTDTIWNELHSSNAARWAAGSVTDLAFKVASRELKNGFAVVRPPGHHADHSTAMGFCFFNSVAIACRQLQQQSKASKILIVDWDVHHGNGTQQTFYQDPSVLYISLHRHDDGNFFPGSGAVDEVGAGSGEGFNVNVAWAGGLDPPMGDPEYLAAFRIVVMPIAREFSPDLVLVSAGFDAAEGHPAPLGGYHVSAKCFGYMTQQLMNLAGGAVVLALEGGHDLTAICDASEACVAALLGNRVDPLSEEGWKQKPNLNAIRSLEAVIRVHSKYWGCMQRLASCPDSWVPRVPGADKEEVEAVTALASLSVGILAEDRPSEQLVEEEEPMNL
Protocol: as §1, §2, §7, §4, §5, §6

HDAC9 = target: T7, HDAC9 (Homo sapiens, UniProt Q9UKV0); test: HDAC enzymatic assay (Reaction Biology), HDAC9; conditions: summary of Table 1
T7 construct: purchased Reaction Biology
T7 sequence (Q9UKV0 whole entry): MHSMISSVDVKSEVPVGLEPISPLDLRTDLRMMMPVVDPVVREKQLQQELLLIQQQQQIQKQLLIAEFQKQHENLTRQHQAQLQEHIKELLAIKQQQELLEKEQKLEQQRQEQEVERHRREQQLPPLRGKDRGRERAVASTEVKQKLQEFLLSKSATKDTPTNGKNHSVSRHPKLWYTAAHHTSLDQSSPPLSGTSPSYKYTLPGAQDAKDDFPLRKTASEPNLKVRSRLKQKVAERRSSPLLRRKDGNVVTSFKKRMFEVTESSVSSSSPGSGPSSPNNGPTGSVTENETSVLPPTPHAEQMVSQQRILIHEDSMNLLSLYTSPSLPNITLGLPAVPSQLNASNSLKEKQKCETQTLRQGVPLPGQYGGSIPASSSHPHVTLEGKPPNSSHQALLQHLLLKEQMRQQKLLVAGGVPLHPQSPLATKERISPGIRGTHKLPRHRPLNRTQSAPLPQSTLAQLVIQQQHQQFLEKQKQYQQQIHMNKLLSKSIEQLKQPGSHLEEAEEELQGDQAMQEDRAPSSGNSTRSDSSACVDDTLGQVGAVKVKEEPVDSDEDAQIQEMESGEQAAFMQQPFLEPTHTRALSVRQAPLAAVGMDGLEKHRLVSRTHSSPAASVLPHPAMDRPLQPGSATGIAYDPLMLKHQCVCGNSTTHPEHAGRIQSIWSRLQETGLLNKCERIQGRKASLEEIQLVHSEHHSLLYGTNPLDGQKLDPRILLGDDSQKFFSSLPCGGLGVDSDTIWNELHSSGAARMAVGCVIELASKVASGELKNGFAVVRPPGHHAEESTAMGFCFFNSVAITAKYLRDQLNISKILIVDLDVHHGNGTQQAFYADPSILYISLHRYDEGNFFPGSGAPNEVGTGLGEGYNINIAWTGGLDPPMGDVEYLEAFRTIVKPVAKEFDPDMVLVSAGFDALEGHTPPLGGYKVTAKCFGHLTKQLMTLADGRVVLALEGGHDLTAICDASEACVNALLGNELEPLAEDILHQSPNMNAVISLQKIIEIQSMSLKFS
Protocol: as §1, §2, §7, §4, §5, §6

T1 sequence (Q13547 whole entry): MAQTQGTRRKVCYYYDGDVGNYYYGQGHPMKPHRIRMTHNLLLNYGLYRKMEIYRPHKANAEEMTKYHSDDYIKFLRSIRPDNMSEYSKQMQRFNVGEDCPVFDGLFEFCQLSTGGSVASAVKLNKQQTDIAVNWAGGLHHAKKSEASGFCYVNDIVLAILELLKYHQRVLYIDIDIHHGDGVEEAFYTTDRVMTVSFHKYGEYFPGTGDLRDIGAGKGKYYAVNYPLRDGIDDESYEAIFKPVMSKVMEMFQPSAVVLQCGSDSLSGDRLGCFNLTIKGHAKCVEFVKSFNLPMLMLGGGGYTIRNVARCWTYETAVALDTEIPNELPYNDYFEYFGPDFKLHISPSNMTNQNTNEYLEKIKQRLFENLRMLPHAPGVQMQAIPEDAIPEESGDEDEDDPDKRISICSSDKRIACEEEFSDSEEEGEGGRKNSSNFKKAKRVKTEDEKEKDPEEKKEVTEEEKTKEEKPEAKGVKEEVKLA

O=C(/C=C/c1ccc(CN(CCOCCOCCNc2cccc3c2C(=O)N(C2CCC(=O)NC2=O)C3=O)CCc2c[nH]c3ccccc23)cc1)NO (stereo not drawn) [Compound 1, (E)-3-(4-(((2-(1H-indol-3-yl)ethyl)(2-(2-(2-((2-(2,6-dioxopiperidin-3-yl)-1,3-dioxoisoindolin-4-yl)amino)ethoxy)ethoxy)ethyl)amino)methyl)phenyl)-N-hydroxyacrylamide]
IC50 (HDAC1; 10-dose response curve, read-out: Compound IC50 (M), HDAC1): 1.06e-06 M | inhibition of enzymatic activity of HDAC1 (in words) (HDAC1; summary of Table 1): Moderate inhibition | IC50 (HDAC2; 10-dose response curve, read-out: Compound IC50 (M), HDAC2): 3.48e-06 M | inhibition of enzymatic activity of HDAC2 (in words) (HDAC2; summary of Table 1): Moderate inhibition | IC50 (HDAC3; 10-dose response curve, read-out: Compound IC50 (M), HDAC3): 1.29e-06 M | inhibition of enzymatic activity of HDAC3 (in words) (HDAC3; summary of Table 1): Moderate inhibition | IC50 (HDAC8; 10-dose response curve, read-out: Compound IC50 (M), HDAC8): 4.51e-06 M | inhibition of enzymatic activity of HDAC8 (in words) (HDAC8; summary of Table 1): potently inhibited; also recorded: Moderate inhibition | IC50 (HDAC5; 10-dose response curve, read-out: Compound IC50 (M), HDAC5): > 2e-05 M | inhibition of enzymatic activity of HDAC5 (in words) (HDAC5; summary of Table 1): did not inhibit | inhibition of enzymatic activity of HDAC7 (in words) (HDAC7): did not inhibit | inhibition of enzymatic activity of HDAC9 (in words) (HDAC9): did not inhibit
